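Briefly, cells in 96-well plates were exposed to five compound concentrations for 48 h, and endpoints were estimated by linear interpolation. At the GI50, growth is halved.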 The source made the active and inactive calls. Rule as the data show it: active = GI50 up to about 1.1 µM and inactive = higher.
Tests used:
Experiment in all cases: DTP human tumour cell line panel, 48 h
[1] = tested on: 786-0
[2] = tested on: COLO 205
[3] = tested on: A549
[4] = tested on: SK-MEL-28
[5] = tested on: HCT-15
[6] = tested on: UO-31
[7] = tested on: CAKI-1
[8] = tested on: DU-145
[9] = tested on: ACHN
[10] = tested on: SK-MEL-5
[11] = tested on: Malme-3M
[12] = tested on: TK-10
[13] = tested on: NCI-H460
[14] = tested on: SF-295
[15] = tested on: EKVX
[16] = tested on: HL-60
[17] = tested on: IGROV-1
[18] = tested on: SR
[19] = tested on: HT-29

Compound: CC(=O)NC1=C(C)C(=O)c2c(nc3n2CC[C@H]3OC(C)=O)C1=O
- GI50 [1]: 1.95 µM (inactive)
- GI50 [2]: 1.91 µM (inactive)
- GI50 [3]: 8.32 µM (inactive)
- GI50 [4]: 2.22 µM (inactive)
- GI50 [5]: 3.58 µM
- GI50 [6]: 3.01 µM (inactive)
- GI50 [7]: 3.98 µM (inactive)
- GI50 [8]: 15.9 µM (inactive)
- GI50 [9]: 2.78 µM (inactive)
- GI50 [10]: 3.09 µM (inactive)
- GI50 [11]: 1.51 µM (inactive)
- GI50 [12]: 8.13 µM (inactive)
- GI50 [13]: 2.95 µM (inactive)
- GI50 [14]: 2.1 µM (inactive)
- GI50 [15]: 5.25 µM (inactive)
- GI50 [16]: 0.834 µM (active)
- GI50 [17]: 3.07 µM (inactive)
- GI50 [18]: 0.361 µM (active)
- GI50 [19]: 2.47 µM (inactive)

Compound: Cc1cn([C@H]2[C@@H](CO)C[C@H]2O)c(=O)[nH]c1=O
- GI50 [1]: > 100 µM (inactive)
- GI50 [2]: > 100 µM (inactive)
- GI50 [3]: > 100 µM (inactive)
- GI50 [4]: > 100 µM (inactive)
- GI50 [5]: > 100 µM
- GI50 [6]: > 100 µM (inactive)
- GI50 [7]: > 100 µM (inactive)
- GI50 [8]: > 100 µM (inactive)
- GI50 [9]: > 100 µM (inactive)
- GI50 [10]: > 100 µM (inactive)
- GI50 [11]: > 100 µM (inactive)
- GI50 [12]: > 100 µM (inactive)
- GI50 [13]: > 100 µM (inactive)
- GI50 [14]: > 100 µM (inactive)
- GI50 [15]: > 100 µM (inactive)
- GI50 [16]: > 100 µM (inactive)
- GI50 [17]: > 100 µM (inactive)
- GI50 [18]: > 100 µM (inactive)
- GI50 [19]: > 100 µM (inactive)

Compound: CCN1CCC(O)(/C=C/c2ccc(C(C)C)cc2)C(C(=O)/C=C/c2ccc(C(C)C)cc2)C1 (stereo unspecified)
- GI50 [1]: 1.71 µM (inactive)
- GI50 [2]: 2.45 µM (inactive)
- GI50 [3]: 3.37 µM (inactive)
- GI50 [4]: 4.51 µM (inactive)
- GI50 [5]: 2 µM
- GI50 [6]: 2.96 µM (inactive)
- GI50 [7]: 4.34 µM (inactive)
- GI50 [8]: 3.34 µM (inactive)
- GI50 [9]: 1.75 µM (inactive)
- GI50 [10]: 4.42 µM (inactive)
- GI50 [11]: 5.02 µM (inactive)
- GI50 [12]: 2.34 µM (inactive)
- GI50 [13]: 1.53 µM (inactive)
- GI50 [14]: 2.9 µM (inactive)
- GI50 [15]: 2.22 µM (inactive)
- GI50 [16]: 2.98 µM (inactive)
- GI50 [17]: 2.05 µM (inactive)
- GI50 [18]: 1.38 µM (inactive)
- GI50 [19]: 2.24 µM (inactive)

Compound: C/C(CC(O)(C(F)(F)F)C(F)(F)F)=N\NC(N)=O
- GI50 [1]: > 10 µM (inactive)
- GI50 [2]: > 10 µM (inactive)
- GI50 [3]: > 10 µM (inactive)
- GI50 [4]: > 10 µM (inactive)
- GI50 [5]: > 10 µM
- GI50 [6]: > 10 µM (inactive)
- GI50 [7]: > 10 µM (inactive)
- GI50 [8]: > 10 µM (inactive)
- GI50 [9]: > 10 µM (inactive)
- GI50 [10]: > 10 µM (inactive)
- GI50 [11]: > 10 µM (inactive)
- GI50 [12]: > 10 µM (inactive)
- GI50 [13]: > 10 µM (inactive)
- GI50 [14]: > 10 µM (inactive)
- GI50 [15]: > 10 µM (inactive)
- GI50 [16]: > 10 µM (inactive)
- GI50 [17]: > 10 µM (inactive)
- GI50 [18]: > 10 µM (inactive)
- GI50 [19]: > 10 µM (inactive)

Compound: CN(CC(N)=O)C(=O)N(CCCl)N=O [SARCNU]
- GI50 [1]: 98.4 µM (inactive)
- GI50 [2]: > 100 µM (inactive)
- GI50 [3]: > 100 µM (inactive)
- GI50 [4]: > 100 µM (inactive)
- GI50 [5]: > 100 µM
- GI50 [6]: > 100 µM (inactive)
- GI50 [7]: > 100 µM (inactive)
- GI50 [8]: > 100 µM (inactive)
- GI50 [9]: > 100 µM (inactive)
- GI50 [10]: > 100 µM (inactive)
- GI50 [11]: > 100 µM (inactive)
- GI50 [12]: > 100 µM (inactive)
- GI50 [13]: 41.1 µM (inactive)
- GI50 [14]: > 76.7 µM (inactive)
- GI50 [15]: > 100 µM (inactive)
- GI50 [16]: > 100 µM (inactive)
- GI50 [17]: > 100 µM (inactive)
- GI50 [18]: > 71.1 µM (inactive)
- GI50 [19]: > 100 µM (inactive)

Compound: CC(C)(C)c1cc(C(=O)/C=C/C=C/c2ccccc2)cc(C(C)(C)C)c1O
- GI50 [1]: 17.1 µM (inactive)
- GI50 [2]: 16.6 µM (inactive)
- GI50 [3]: 17.8 µM (inactive)
- GI50 [4]: 30.5 µM (inactive)
- GI50 [5]: 15.9 µM
- GI50 [6]: 17.6 µM (inactive)
- GI50 [7]: 29 µM (inactive)
- GI50 [8]: 29.4 µM (inactive)
- GI50 [9]: 29.2 µM (inactive)
- GI50 [10]: 11.3 µM (inactive)
- GI50 [11]: 47.9 µM (inactive)
- GI50 [12]: 19.5 µM (inactive)
- GI50 [13]: 15.4 µM (inactive)
- GI50 [14]: 27.2 µM (inactive)
- GI50 [15]: 25.4 µM (inactive)
- GI50 [16]: 1.55 µM (inactive)
- GI50 [17]: 33.3 µM (inactive)
- GI50 [18]: 3.24 µM (inactive)
- GI50 [19]: 22.9 µM (inactive)

Compound: C=C(C)c1cc(C(C)(C)C)cc(C(=C)C)c1S(C)(=O)=O
- GI50 [1]: > 100 µM (inactive)
- GI50 [2]: 0.596 µM (active)
- GI50 [3]: > 100 µM (inactive)
- GI50 [4]: > 100 µM (inactive)
- GI50 [5]: > 100 µM
- GI50 [6]: > 100 µM (inactive)
- GI50 [7]: > 100 µM (inactive)
- GI50 [8]: > 100 µM (inactive)
- GI50 [9]: > 100 µM (inactive)
- GI50 [10]: > 100 µM (inactive)
- GI50 [11]: > 100 µM (inactive)
- GI50 [12]: > 100 µM (inactive)
- GI50 [13]: > 100 µM (inactive)
- GI50 [14]: > 100 µM (inactive)
- GI50 [15]: > 100 µM (inactive)
- GI50 [16]: > 100 µM (inactive)
- GI50 [17]: > 100 µM (inactive)
- GI50 [18]: > 100 µM (inactive)
- GI50 [19]: > 100 µM (inactive)

Compound: Cc1c2c(n3c(nc4ccccc43)c1C#N)SCC2
- GI50 [1]: 8.71 µM (inactive)
- GI50 [3]: > 10 µM (inactive)
- GI50 [4]: > 10 µM (inactive)
- GI50 [5]: > 10 µM
- GI50 [6]: > 10 µM (inactive)
- GI50 [7]: > 10 µM (inactive)
- GI50 [8]: > 10 µM (inactive)
- GI50 [9]: > 10 µM (inactive)
- GI50 [10]: > 10 µM (inactive)
- GI50 [11]: > 10 µM (inactive)
- GI50 [12]: > 10 µM (inactive)
- GI50 [13]: > 10 µM (inactive)
- GI50 [14]: > 10 µM (inactive)
- GI50 [15]: > 10 µM (inactive)
- GI50 [16]: > 10 µM (inactive)
- GI50 [17]: > 10 µM (inactive)
- GI50 [18]: > 10 µM (inactive)
- GI50 [19]: > 10 µM (inactive)

Reference: ChEMBL document CHEMBL1201862, “PubChem BioAssay data set” (2004)
